Reference: patent US12508342B2, “Debridement composition” (priority 2020, dated 2025)

Columns and labels:
[1] = AKZO Nobel published values using modified Davies HLB group numbers; cited from earlier work
[2] = Simulated wound matrix disruption on 96-peg lid, test solutions (Example 1); details: for % Difference in Efficacy (surfactants) / % Difference in Efficacy (chelators): 1% w/w solution, 37° C., 1 hour, absorbance at 595 nm, with respect to 1% w/w benzethonium chloride aqueous solution; for efficacy relative to benzalkonium chloride, cocoamidopropyl betaine and Poloxamer 188 / efficacy in disrupting the simulated test wound matrix relative to SLS: 1% w/w; for efficacy in disrupting the simulated test wound matrix relative to SLS: compared with SLS
Experimental: The following examples are prepared and evaluated using a simulated wound matrix composition. A wound matrix is prepared to contain:
The pegs are dipped into the simulated wound matrix and immediately transferred to a calcium chloride bath to achieve cross-linking. Solutions of test materials are prepared at 1% w/w in a 96 well microtiter plate. Following crosslinking, the pegs are inserted into the wells and incubated at 37° C. for 1 hour. Efficacy is characterised by the change in colour of the test solutions resulting from disruption of the stained material and is quantified by reading the absorbance of each solution at 595 nm. Results are presented with respect to a 1% w/w benzethonium chloride aqueous solution.

Row | Compound | HLB Value [1] | % Difference in Efficacy (surfactants) [2] | % Difference in Efficacy (chelators) [2] | further results
1 | CCCCCCCCCCCCOS(=O)(=O)[O-].[Na+] [Sodium Dodecyl Sulphate, reference compound] | 33.0 | −99% | – | –
2 | CCCCCCCC/C=C\CCCCCCCC(=O)[O-].[Na+] [Sodium Oleate] | 10.55 | +996% | – | efficacy relative to benzalkonium chloride, cocoamidopropyl betaine and Poloxamer 188 [2]: an order of magnitude greater; efficacy in disrupting the simulated test wound matrix relative to SLS [2]: an order of magnitude greater
3 | Cocoamidopropyl betaine | – | +120% | – | –
4 | Benzalkonium Chloride [reference compound] | – | +60% | – | –
5 | Poloxamer 188 [reference compound] | 3.4 | −90% | – | –
6 | O=C(O)CC(O)(CC(=O)O)C(=O)O [Citric Acid] | – | – | +50% | –
7 | Sodium Laureth-2 Sulphate | 15.3 | −30% | – | –
8 | Di-sodium Lauryl Sulfosuccinate | – | +844% | – | efficacy relative to benzalkonium chloride, cocoamidopropyl betaine and Poloxamer 188 [2]: an order of magnitude greater; efficacy in disrupting the simulated test wound matrix relative to SLS [2]: an order of magnitude greater
9 | O=C([O-])CC(O)(CC(=O)[O-])C(=O)[O-].[Na+].[Na+].[Na+] [Tris-odium Citrate] | – | – | +1750% | –
10 | O=C([O-])C(=O)[O-].[K+].[K+] [Potassium Oxalate] | – | – | +1350% | –
11 | O=P([O-])(O)O.[Na+] [Sodium Di-hydrogen Phosphate] | – | – | −70% | –
